Laboratory results taken from patent publication US6426355B1, “Heterocyclic carboxamide-containing thiourea inhibitors of herpes viruses containing phenylenediamine group” (American Home Products, priority 1998, dated 2002).
In brackets after ≈: the same amount, converted by molar mass.

Experiments:
[1] = tested on: HCMV recombinant mutant virus (RV145); assay: HCMV microtiter plate assay (beta-glucuronidase reporter); type: cell-based, Human Cytomegalovirus; conditions: for IC50 (ug/ml) HCMV: HCMV in human foreskin fibroblasts; for IC50: Human betaherpesvirus 5, Fibroblast, read-out: IC50 (ug/ml) HCMV
Procedure, shortened: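 Replication was read out as virus-encoded β-glucuronidase activity, measured with a chromogenic or fluorogenic glucuronide substrate in cell lysates at 96 h post-infection. Infection of human foreskin fibroblasts with RV145 took place with compound present. IC50 was derived from a range of inhibitor amounts.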

VZV strain Ellen = assay: VZV Antiviral (ELISA) assay; type: cell-based; conditions: for IC50 (ug/ml) VZV / % inhibition 10 ug/ml VZV: VZV strain Ellen in HFF cells; for % inhibition 10 ug/ml VZV: at 10 ug/ml; for IC50: Human alphaherpesvirus 3, VZV strain Ellen in HFF cells, read-out: IC50 (ug/ml) VZV
Procedure, shortened: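 Cell-based ELISA: infected/uninfected HFF mix (VZV Ellen, MOI <0.1) exposed to compound in DMEM/2% FBS for 3 days at 37° C. Anti-gpII monoclonal plus β-galactosidase-linked secondary, detected as 4-methylumbelliferone fluorescence; IC50 derived by comparing fluorescence with versus without compound.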

HSV-1 = assay: HSV Antiviral (ELISA) assay; type: cell-based; conditions: for IC50 (ug/ml) HSV: HSV-1 in Vero cells; for IC50: Human alphaherpesvirus 1, HSV-1 in Vero cells, read-out: IC50 (ug/ml) HSV
Procedure, shortened: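 Replication measured as glycoprotein D signal in fixed cells: anti-gD antibody plus β-galactosidase-linked secondary, fluorogenic substrate read at 365/450 nm. Vero cells (2% FBS DMEM) received compound 30 min pre-infection, HSV-1 MOI 0.006, ~24 h incubation; IC50 relative to no-compound fluorescence.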

CC(N=[N+]=[N-])c1ccc(NC(=S)Nc2ccc(NC(=O)c3ccco3)cc2)cc1Cl (stereo not shown) [Example 486]
IC50 (ug/ml) HCMV [1]: 0.045 µg/mL (≈ 0.102 µM)
IC50 (ug/ml) VZV (VZV strain Ellen): >10 µg/mL
% inhibition 10 ug/ml VZV (VZV strain Ellen): 22%
IC50 (ug/ml) HSV (HSV-1): >10 µg/mL

CCCCc1nc(C(=O)Nc2ccc(NC(=S)Nc3cc(C(F)(F)F)cc(C(F)(F)F)c3)cc2)cs1 [Example 1137, 2-Butyl-thiazole-4-carboxylic acid {4-[3-(3,5-bis-trifluoromethyl-phenyl)-thioureido]-phenyl}-amide]
IC50 [1]: 0.6 µg/mL (≈ 1.1 µM)
IC50 (VZV strain Ellen): 3.5 µg/mL (≈ 6.4 µM)
IC50 (HSV-1): > 10 µg/mL

CN(C)c1cc(Cl)cc(NC(=S)Nc2ccc(NC(=O)c3csnn3)cc2)c1 [Example 522]
IC50 (ug/ml) HCMV [1]: 0.025 µg/mL (≈ 0.0577 µM)
IC50 (ug/ml) VZV (VZV strain Ellen): >10 µg/mL
% inhibition 10 ug/ml VZV (VZV strain Ellen): 32%
IC50 (ug/ml) HSV (HSV-1): >10 µg/mL

CC(NC(=S)Nc1ccc(NC(=O)c2csnn2)cc1)c1ccc(Br)cc1 (stereo not shown) [Example 647]
IC50 (ug/ml) HCMV [1]: 0.007 µg/mL (≈ 0.0151 µM)
IC50 (ug/ml) VZV (VZV strain Ellen): 0.1 µg/mL (≈ 0.216 µM)
IC50 (ug/ml) HSV (HSV-1): >10 µg/mL

O=C(Nc1ccc(CNC(=S)Nc2ccc(Cl)c(C(F)(F)F)c2)cc1)c1csnn1 [Example 631]
IC50 (ug/ml) HCMV [1]: 0.15 µg/mL (≈ 0.318 µM)
IC50 (ug/ml) VZV (VZV strain Ellen): 6 µg/mL (≈ 12.7 µM)
IC50 (ug/ml) HSV (HSV-1): 6 µg/mL (≈ 12.7 µM)

O=C(Nc1ccc(NC(=S)Nc2ccc(Cl)c(Cl)c2)cc1)c1csnn1 [Example 964, [1,2,3]Thiadiazole-4-carboxylic acid {4-[3-(3,4-dichloro-phenyl)-thioureido]-phenyl}-amide]
IC50 [1]: 0.03 µg/mL (≈ 0.0707 µM)
IC50 (VZV strain Ellen): > 10 µg/mL
inhibition at 10 µg/mL (VZV strain Ellen; Human alphaherpesvirus 3, read-out: % inhibition 10 ug/ml VZV, at 10 ug/ml, VZV strain Ellen in HFF cells): 9%
IC50 (HSV-1): > 10 µg/mL

O=C(Nc1ccc(NC(=S)Nc2cccc(C(F)(F)F)c2)cc1)c1csnn1 [Example 457]
IC50 (ug/ml) HCMV [1]: 0.019 µg/mL (≈ 0.0449 µM)
IC50 (ug/ml) VZV (VZV strain Ellen): >10 µg/mL
% inhibition 10 ug/ml VZV (VZV strain Ellen): 26%
IC50 (ug/ml) HSV (HSV-1): >10 µg/mL

O=C(Nc1ccc(NC(=S)Nc2ccc(OC(F)(F)F)c(Br)c2)cc1)c1ccco1 [Example 919, Furan-2-carboxylic acid {4-[3-(3-bromo-4-trifluoromethoxy-phenyl)-thioureido]-phenyl}-amide]
IC50 [1]: 0.05 µg/mL (≈ 0.0999 µM)
IC50 (VZV strain Ellen): > 10 µg/mL
IC50 (HSV-1): > 10 µg/mL
